# Data from publication PMC3961306, “Comparison of the Cancer Gene Targeting and Biochemical Selectivities of All Targeted Kinase Inhibitors Approved for Clinical Use” (PLoS ONE, 2014).
# Legend:
# Assay in all cases: Kinase profiling in a biochemical assay panel (mobility shift assays and ELISA), %-inhibition at 1 μM; selectivity entropy
# [1] = biological target: T1, panel of more than 300 wild-type and mutant kinases (313 kinase panel) (Homo sapiens, UniProt O14920)
# T1 sequence (O14920 1-756): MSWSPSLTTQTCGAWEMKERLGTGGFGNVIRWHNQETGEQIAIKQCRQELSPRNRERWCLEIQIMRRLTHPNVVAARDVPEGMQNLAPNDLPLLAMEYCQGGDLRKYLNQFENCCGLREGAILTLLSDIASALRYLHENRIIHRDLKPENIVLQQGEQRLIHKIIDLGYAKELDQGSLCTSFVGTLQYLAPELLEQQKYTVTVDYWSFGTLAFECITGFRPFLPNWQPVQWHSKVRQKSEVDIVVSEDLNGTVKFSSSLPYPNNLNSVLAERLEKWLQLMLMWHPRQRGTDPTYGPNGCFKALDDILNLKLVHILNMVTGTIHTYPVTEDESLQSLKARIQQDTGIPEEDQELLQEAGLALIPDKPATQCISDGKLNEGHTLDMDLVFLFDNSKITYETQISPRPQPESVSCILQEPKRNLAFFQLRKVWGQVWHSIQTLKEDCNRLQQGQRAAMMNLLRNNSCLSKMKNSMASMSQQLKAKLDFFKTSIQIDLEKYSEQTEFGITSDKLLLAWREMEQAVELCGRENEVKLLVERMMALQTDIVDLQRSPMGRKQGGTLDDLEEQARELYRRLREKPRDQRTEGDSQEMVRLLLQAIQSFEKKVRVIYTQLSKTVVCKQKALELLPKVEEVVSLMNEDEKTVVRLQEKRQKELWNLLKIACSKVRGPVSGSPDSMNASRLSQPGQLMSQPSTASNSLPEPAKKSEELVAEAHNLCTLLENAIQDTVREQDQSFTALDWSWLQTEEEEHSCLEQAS
# [2] = biological target: panel of more than 300 wild-type and mutant kinases (313 kinase panel) (Homo sapiens, UniProt P09769)
# [3] = biological target: panel of more than 300 wild-type and mutant kinases (313 kinase panel) (Homo sapiens, UniProt Q14289)
# panel of more than 300 wild-type and mutant kinases (313 kinase panel) (Homo sapiens, UniProt Q14289), sequence (Q14289 whole entry, change not shown): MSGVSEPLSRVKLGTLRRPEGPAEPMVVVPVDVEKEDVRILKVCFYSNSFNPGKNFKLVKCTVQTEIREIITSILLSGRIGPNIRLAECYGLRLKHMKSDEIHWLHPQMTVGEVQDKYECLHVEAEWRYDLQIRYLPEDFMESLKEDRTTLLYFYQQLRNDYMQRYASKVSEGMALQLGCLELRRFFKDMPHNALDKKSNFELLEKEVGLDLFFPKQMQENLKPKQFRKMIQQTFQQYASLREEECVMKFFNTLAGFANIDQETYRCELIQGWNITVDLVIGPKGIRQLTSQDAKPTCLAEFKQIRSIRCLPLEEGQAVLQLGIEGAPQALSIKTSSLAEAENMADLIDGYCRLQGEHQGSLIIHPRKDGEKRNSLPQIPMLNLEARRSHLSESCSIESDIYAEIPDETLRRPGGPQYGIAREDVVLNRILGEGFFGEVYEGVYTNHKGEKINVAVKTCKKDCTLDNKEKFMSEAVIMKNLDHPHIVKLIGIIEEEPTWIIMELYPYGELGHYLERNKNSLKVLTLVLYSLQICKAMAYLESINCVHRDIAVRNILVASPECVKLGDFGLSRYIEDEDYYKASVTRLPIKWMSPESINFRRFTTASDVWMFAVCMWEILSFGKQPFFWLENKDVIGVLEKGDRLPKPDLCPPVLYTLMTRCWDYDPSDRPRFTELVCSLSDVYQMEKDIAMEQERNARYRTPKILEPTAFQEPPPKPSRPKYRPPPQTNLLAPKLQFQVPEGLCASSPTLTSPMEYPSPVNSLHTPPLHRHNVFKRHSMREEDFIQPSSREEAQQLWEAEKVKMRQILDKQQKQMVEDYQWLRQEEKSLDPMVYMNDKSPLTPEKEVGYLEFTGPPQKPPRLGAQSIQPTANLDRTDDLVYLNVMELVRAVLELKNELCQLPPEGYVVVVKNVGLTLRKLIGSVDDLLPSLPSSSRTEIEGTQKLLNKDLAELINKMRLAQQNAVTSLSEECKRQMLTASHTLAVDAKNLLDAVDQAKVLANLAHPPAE
# [4] = biological target: T2, panel of more than 300 wild-type and mutant kinases (313 kinase panel) (Homo sapiens, UniProt Q16566)
# T2 sequence (Q16566 1-473): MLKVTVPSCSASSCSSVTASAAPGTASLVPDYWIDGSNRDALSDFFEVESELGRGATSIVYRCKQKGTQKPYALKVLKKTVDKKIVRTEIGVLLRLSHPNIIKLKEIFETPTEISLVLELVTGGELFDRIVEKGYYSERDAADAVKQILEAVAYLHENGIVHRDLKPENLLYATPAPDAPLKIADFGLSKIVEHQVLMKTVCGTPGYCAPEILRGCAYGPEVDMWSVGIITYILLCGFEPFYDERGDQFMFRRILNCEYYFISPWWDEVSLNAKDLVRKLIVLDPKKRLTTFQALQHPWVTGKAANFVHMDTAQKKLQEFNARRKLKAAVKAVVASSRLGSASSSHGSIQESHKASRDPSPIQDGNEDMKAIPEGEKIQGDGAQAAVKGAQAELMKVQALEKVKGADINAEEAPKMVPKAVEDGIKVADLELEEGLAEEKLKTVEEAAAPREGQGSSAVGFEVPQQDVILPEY
# [5] = biological target: T3, panel of more than 300 wild-type and mutant kinases (313 kinase panel) (Homo sapiens, UniProt Q8TDC3)
# T3 sequence (Q8TDC3 1-778): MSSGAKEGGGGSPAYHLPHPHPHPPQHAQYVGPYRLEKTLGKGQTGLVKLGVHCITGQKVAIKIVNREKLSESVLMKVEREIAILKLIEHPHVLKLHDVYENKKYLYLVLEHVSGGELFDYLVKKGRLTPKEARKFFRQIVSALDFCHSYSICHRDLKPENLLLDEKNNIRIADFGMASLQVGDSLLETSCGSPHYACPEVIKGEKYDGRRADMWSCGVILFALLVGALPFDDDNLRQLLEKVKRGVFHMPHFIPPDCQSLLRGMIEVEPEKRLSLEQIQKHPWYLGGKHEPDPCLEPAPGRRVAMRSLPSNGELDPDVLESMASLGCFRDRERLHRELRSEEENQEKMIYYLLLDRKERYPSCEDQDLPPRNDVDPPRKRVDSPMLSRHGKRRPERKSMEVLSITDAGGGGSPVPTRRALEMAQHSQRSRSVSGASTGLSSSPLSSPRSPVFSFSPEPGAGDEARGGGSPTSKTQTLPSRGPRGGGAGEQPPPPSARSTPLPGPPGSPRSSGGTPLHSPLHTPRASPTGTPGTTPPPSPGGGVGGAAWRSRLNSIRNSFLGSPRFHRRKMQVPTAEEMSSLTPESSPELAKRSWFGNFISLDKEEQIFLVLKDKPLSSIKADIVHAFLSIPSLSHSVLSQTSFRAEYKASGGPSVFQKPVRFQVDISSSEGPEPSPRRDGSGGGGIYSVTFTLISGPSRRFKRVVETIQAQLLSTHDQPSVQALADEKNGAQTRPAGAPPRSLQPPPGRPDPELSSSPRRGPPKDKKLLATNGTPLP
SMILES,"%-inhibition of IKKβ ([1]; kinase IKKβ, compound at 1 μM) [%]","%-inhibition of FGR ([2]; kinase FGR, compound at 1 μM) [%]","%-inhibition of PYK2 ([3]; kinase PYK2, 1 μM) [%]","%-inhibition, CaMK4 ([4]; kinase CaMK4, 1 μM compound) [%]","%-inhibition, BRSK1 ([5]; kinase BRSK1, 1 μM compound) [%]",%-inhibition of IKKβ ([1]; 1 µM) [%],%-inhibition of FGR ([2]; 1 µM) [%],"%-inhibition, CaMK4 ([4]; 1 µM) [%]",%-inhibition of PYK2 ([3]; 1 µM) [%],"%-inhibition, BRSK1 ([5]; 1 µM) [%]"
CO[C@H]1C[C@@H]2CC[C@@H](C)[C@@](O)(O2)C(=O)C(=O)N2CCCC[C@H]2C(=O)O[C@H]([C@H](C)C[C@@H]2CC[C@@H](OC(=O)C(C)(CO)CO)[C@H](OC)C2)CC(=O)[C@H](C)/C=C(\C)[C@@H](O)[C@@H](OC)C(=O)[C@H](C)C[C@H](C)/C=C/C=C/C=C/1C [temsirolimus],-4.44,-3,-3,-9,-14,–,–,–,–,–
CNC(=O)c1cc(Oc2ccc(NC(=O)Nc3ccc(Cl)c(C(F)(F)F)c3)c(F)c2)ccn1 [regorafenib],-4.61,56,-0.496,-0.0486,-17,–,–,–,–,–
CO[C@H]1C[C@@H]2CC[C@@H](C)[C@@](O)(O2)C(=O)C(=O)N2CCCC[C@H]2C(=O)O[C@H]([C@H](C)C[C@@H]2CC[C@@H](OCCO)[C@H](OC)C2)CC(=O)[C@H](C)/C=C(\C)[C@@H](O)[C@@H](OC)C(=O)[C@H](C)C[C@H](C)/C=C/C=C/C=C/1C [everolimus],-3,1,1.49,-11,-9,–,–,–,–,–
COc1cc2nccc(Oc3ccc(NC(=O)C4(C(=O)Nc5ccc(F)cc5)CC4)cc3)c2cc1OC [cabozantinib],-2.35,94,91,-10,3.24,–,–,–,–,–
COc1cc2c(Nc3ccc(Br)cc3F)ncnc2cc1OCC1CCN(C)CC1 [vandetanib],-4.53,86,6,-3,-9,–,–,–,–,–
CC(C)(C)c1nc(-c2cccc(NS(=O)(=O)c3c(F)cccc3F)c2F)c(-c2ccnc(N)n2)s1 [dabrafenib],3.71,82,56,78,37,–,–,–,–,–
Cc1ccc(Nc2nccc(N(C)c3ccc4c(C)n(C)nc4c3)n2)cc1S(N)(=O)=O [pazopanib],0.627,86,39,-1.08,-1.05,–,–,–,–,–
N#CC[C@H](C1CCCC1)n1cc(-c2ncnc3[nH]ccc23)cn1 [ruxolitinib],–,–,68,-2.58,-6.38,2.26,10,–,–,–
C[C@@H](Oc1cc(-c2cnn(C3CCNCC3)c2)cnc1N)c1c(Cl)ccc(F)c1Cl [crizotinib],-5,70,–,–,12,–,–,–,–,–
CCCS(=O)(=O)Nc1ccc(F)c(C(=O)c2c[nH]c3ncc(-c4ccc(Cl)cc4)cc23)c1F [vemurafenib],-3.31,93,0.921,-2.38,-8,–,–,–,–,–
O=S(=O)(c1cccc2cnccc12)N1CCCNCC1 [fasudil],3.71,-4.71,1.79,-5.66,-0.211,–,–,–,–,–
CS(=O)(=O)CCNCc1ccc(-c2ccc3ncnc(Nc4ccc(OCc5cccc(F)c5)c(Cl)c4)c3c2)o1 [lapatinib],0.904,10,-0.787,–,2,–,–,-4.44,–,–
C#Cc1cccc(Nc2ncnc3cc(OCCOC)c(OCCOC)cc23)c1 [erlotinib],–,–,–,–,–,11,29,2,8,5.68
Cc1cn(-c2cc(NC(=O)c3ccc(C)c(Nc4nccc(-c5cccnc5)n4)c3)cc(C(F)(F)F)c2)cn1 [nilotinib],-1.78,55,–,3.54,0.801,–,–,–,-63,–
COc1cc(Nc2c(C#N)cnc3cc(OCCCN4CCN(C)CC4)c(OC)cc23)c(Cl)cc1Cl [bosutinib],-6,92,89,–,-11,–,–,–,–,–
CCN(CC)CCNC(=O)c1c(C)[nH]c(/C=C2\C(=O)Nc3ccc(F)cc32)c1C [sunitinib],–,–,94,26,–,–,–,–,–,–
CC(=O)Nc1cccc(-n2c(=O)n(C3CC3)c(=O)c3c(Nc4ccc(I)cc4F)n(C)c(=O)c(C)c32)c1 [trametinib],0.741,-9,2.72,-5.45,-6,–,–,–,–,–
Cc1ccc(C(=O)Nc2ccc(CN3CCN(C)CC3)c(C(F)(F)F)c2)cc1C#Cc1cnc2cccnn12 [ponatinib],46,101,99,-1.51,-8,–,–,–,–,–
